Source: patent US10160986B2, “Chemoenzymatic synthesis of heparin and heparan sulfate analogs” (The Regents of the University of California, priority 2011, dated 2018)
Where two headings read alike, the source gives them in different places.

Columns and labels:
His6-PmHS2 = assay: GlcNAcT donor substrate specificity of His6-PmHS2 (Example 12); format: biochemical, Pasteurella multocida; conditions: acceptor GlcAβ2AA 1 mM, UDP-sugar 1 mM, MnCl2 10 mM, PmHS2 1.1 μg μl^−1, 24 h, 37° C.
Protocol: (§1) PmHS2, KfiA, and related fusion proteins were expressed, purified, and characterized as described in Example 1. Reactions with UDP-sugars were carried out in duplicate at 37° C. in MES (100 mM, pH 6.5) containing UDP-GlcNAc or one of its derivatives (1 mM), GlcAβ2AA (1 mM), MnCl2 (10 mM) and KfiA (2.8 μg μl^−1) or PmHS2 (1.1 μg μl^−1) for 24 h. The reaction mixtures were stopped by adding ice-cold 10% (v/v) acetonitrile to make 100-fold dilutions and the mixtures were analyzed by HPLC as described for the pH profile.
(§2) Substrate specificity of the GlcNAcT activities of MBP-KfiA-his6 and his6-PmHS2. […] The reactions were easily analyzed by high performance liquid chromatography (HPLC) equipped with a fluorescence detector using an excitation wavelength of 315 nm and an emission wavelength of 400 nm to determine the ratio of the fluorescent disaccharide product formed and the fluorescent GlcAβ2AA acceptor.

[1] = test system: T1, MBP-KfiA-His6 (Escherichia coli); assay: GlcNAcT donor substrate specificity of MBP-KfiA-His6 (Example 12); format: biochemical, E. coli; conditions: acceptor GlcAβ2AA 1 mM, UDP-sugar 1 mM, MnCl2 10 mM, KfiA 2.8 μg μl^−1, 24 h, 37° C.
T1 construct: made in house; host or cells: E. coli BL21(DE3) co-expressing chaperone plasmid pGro7
Protocol: as §1, §2

NahK_ATCC15697 = NahK_ATCC15697 (Bifidobacterium longum, UniProt B7GN78); assay: Substrate specificity CE assay, NahK_ATCC15697; format: biochemical, Bifidobacterium infantis; conditions: substrate 1 mM
Protocol: (§3) Substrates specificity assays. GlcNAc, GalNAc, and their derivatives (1 mM) were used as substrates in the presence of ATP (1 mM) and MgCl2 (5 mM) in a Tris-HCl buffer (pH 8.0, 200 mM) to analyze the substrate specificity of NahKs. Two concentrations (0.75 μM or 15 μM) of each NahK were used and the reactions were allowed to proceed for 10 min (for 0.75 μM NahK) or 30 min (for 15 μM NahK) at 37° C. […] All other conditions were the same as for GlcNAc, GalNAc, and their derivatives.
(§4) Capillary electrophoresis (CE) assays. Based on the detection of ADP and ATP in the reaction mixture by a UV detector, a capillary electrophoresis-based method was developed to directly measure the formation of ADP and N-acetylhexosamine-1-phosphate from ATP and N-acetylhexosamine for characterizing the activities of NahKs.

SpGalK = target: T2, SpGalK (Streptococcus pneumoniae serotype 4, UniProt Q97NZ6); assay: Kinase reaction monitored by CE (ATP to ADP), SpGalK; format: biochemical, Streptococcus pneumoniae TIGR4; conditions: monosaccharide 15 mM, ATP 18 mM, 37° C.
T2 construct: made in house
Protocol: Capillary electrophoresis (CE) and thin-layer chromatograph (TLC) assays for kinase reactions. […] These conditions were similar to those used for preparative-scale synthesis. After 1 hr, 4 hr, and 24 hr, an aliquot of 8 μL was withdrawn from each reaction mixture, boiled in a water bath for 5 min and stored at −20° C. until being analyzed by capillary electrophoresis (CE) and TLC. For TLC analysis, 0.5 μL of each sample was directly spotted on TLC plates, developed using suitable developing solvents, and stained with anisaldehyde sugar stain. For CE analysis, 1.5 μL of each sample was diluted into 30 μL and subjected to CE analysis as described above for pH profile studies.

NahK_ATCC55813 = NahK_ATCC55813 (Bifidobacterium longum subsp. longum, UniProt E8MF12, D7V/R348H); format: biochemical; set-up: made in house; host or cells: E. coli BL21(DE3); conditions: substrate 1 mM
Protocol: as §3, §4

PmHS2 = assay: Small-scale PmHS2 donor substrate test by TLC; format: biochemical, Pasteurella multocida; conditions: GlcAβ2AAMe 10 mM, donor 15 mM, MgCl2 10 mM, PmHS2 0.5 mg/mL, pH 7.5, 37° C., 12 hr
Protocol: Prior to applying the one-pot three-enzyme system shown in FIG. 16 to the preparative-scale synthesis of the disaccharides, UDP-GlcNAc and derivatives F17-1-F17-12 were tested as donor substrates for PmHS2 in small-scale reaction containing Tris-HCl buffer (100 mM, pH 7.5), GlcAβ2AAMe (10 mM), UDP-GlcNAc or a derivative (15 mM), MgCl2 (10 mM), and PmHS2 (0.5 mg/mL). The reactions were carried out at 37° C. for 12 hr and analyzed by thin layer chromatography (TLC).

[2] = 0.75 μM enzyme, 10 min at 37° C., ATP 1 mM
[3] = 15 μM enzyme, 30 min at 37° C., ATP 1 mM (Table 2)

Compound	donor substrate for the α1-4GlcNAcT activity of His6-PmHS2 (His6-PmHS2)	donor substrate for MBP-KfiA-His6 [1]	donor substrate for PmHS2 (PmHS2)	other results
O=C(Cc1ccccc1)NC1C(OP(=O)(O)OP(=O)(O)OCC2OC(n3ccc(=O)[nH]c3=O)C(O)C2O)OC(CO)C(O)C1O [Compound 33-5, Uridine 5′-diphospho-2-phenylacetamido-2-deoxy-α-D-glucopyranoside]	tolerable donor substrates for His6-PmHS2	not for MBPKfiA-His6		
CC(=O)N[C@H]1[C@@H](OP(=O)(O)OP(=O)(O)OC[C@H]2O[C@@H](n3ccc(=O)[nH]c3=O)[C@H](O)[C@@H]2O)O[C@H](CO)[C@H](O)[C@@H]1O [Compound 33-18, uridine 5′-diphospho-2-acetamido-2-deoxy-α-D-glacopyranoside]	tolerable donor substrates for His6-PmHS2	not for MBPKfiA-His6		
[N-]=[N+]=NC1C(O)OC(CO)[C@H](O)C1O (stereo partly drawn) [GalN3]				Percentage Conversion (NahK_ATCC15697; [2]): 0%; Percentage Conversion (NahK_ATCC15697; [3]): 7.6 ± 0.1%; ATP Conversion (SpGalK; 1 hr): 45.7%; ATP Conversion (SpGalK; 4 hr): 79.0%; ATP Conversion (SpGalK; 24 hr): 81.2%; Percentage Conversion (NahK_ATCC55813; [2]): 0%; Percentage Conversion (NahK_ATCC55813; [3]): 4.3 ± 0.1%
O=C(Cc1ccc(-c2ccccc2)cc1)N[C@H]1[C@@H](OP(=O)(O)OP(=O)(O)OC[C@H]2O[C@@H](n3ccc(=O)[nH]c3=O)[C@H](O)[C@@H]2O)O[C@H](CO)[C@@H](O)[C@@H]1O [Compound 33-6, Uridine 5′-diphospho-2-(1,1′-biphenyl-4-yl)acetamido-2-deoxy-α-D-glucopyranoside]	not suitable donor substrates	not suitable donor substrates		
CC(=O)NC1C(OP(=O)(O)OP(=O)(O)OCC2OC(n3ccc(=O)[nH]c3=O)C(O)C2O)OC(CNC(=O)Cc2ccc(-c3ccccc3)cc2)C(O)C1O [Compound 33-15, Uridine 5′-diphospho-2-acetamido-6-(1,1′-biphenyl-4-yl)-acetamido-2,6-dideoxy-α-D-glucopyranoside]	not suitable donor substrates	not suitable donor substrates		
CC(=O)N[C@H]1[C@@H](OP(=O)(O)OP(=O)(O)OC[C@H]2O[C@@H](n3ccc(=O)[nH]c3=O)[C@H](O)[C@@H]2O)O[C@H](CNC(=O)CO)[C@@H](O)[C@@H]1O [Compound F17-9, Uridine 5′-diphospho-2-acetamido-6-hydroxyacetamido-2,6-dideoxy-α-D-glucopyranoside]	tolerable donor substrates for His6-PmHS2	not for MBPKfiA-His6	tolerable donor substrates	
NC1C(OP(=O)(O)OP(=O)(O)OCC2OC(n3ccc(=O)[nH]c3=O)C(O)C2O)OC(CO)C(O)C1O [Compound F17-5, Uridine 5′-diphospho-2-amino-2-deoxy-α-D-glucopyranoside]	not acceptable donor substrates	not acceptable donor substrates	did not serve as donor substrates	
CC(=O)NC1C(OP(=O)(O)OP(=O)(O)OCC2OC(n3ccc(=O)[nH]c3=O)C(O)C2O)OC(CNC(=O)Cc2ccccc2)C(O)C1O [Compound 33-14, Uridine 5′-diphospho-2-acetamido-6-phenylacetamido-2,6-dideoxy-α-D-glucopyranoside]	not suitable donor substrates	not suitable donor substrates		
O=c1ccn(C2OC(COP(=O)(O)OP(=O)(O)OC3OC(CO)C(O)C(O)C3F)C(O)C2O)c(=O)[nH]1 [Compound 33-23, Uridine 5′-diphospho-2-fluoro-2-deoxy-α-D-mannopyranoside]	not tolerable substrate	not tolerable substrate		
[N-]=[N+]=N[C@@H]1[C@@H](OP(=O)(O)OP(=O)(O)OC[C@H]2O[C@@H](n3ccc(=O)[nH]c3=O)[C@H](O)[C@@H]2O)O[C@H](CO)[C@@H](O)[C@@H]1O [Compound 33-21, Uridine 5′-diphospho-2-azido-2-deoxy-α-D-mannopyranoside]	not tolerable substrate	not tolerable substrate		
CC(=O)N[C@H]1[C@@H](OP(=O)(O)OP(=O)(O)OC[C@H]2O[C@@H](n3ccc(=O)[nH]c3=O)[C@H](O)[C@@H]2O)O[C@H](COS(=O)(=O)O)[C@@H](O)[C@@H]1O [Compound F17-12, Uridine 5′-diphospho-2-acetamido-2-deoxy-6-O-sulfo-α-D-glucopyranoside]	block the activities of both		did not serve as donor substrates	
CC(=O)NC1C(OP(=O)(O)OP(=O)(O)OCC2OC(n3ccc(=O)[nH]c3=O)C(O)C2O)OC(CNC(=O)CN=[N+]=[N-])C(O)C1O [Compound F17-11, Uridine 5′-diphospho-2-acetamido-6-azidoacetamido-2,6-dideoxy-α-D-glucopyranoside]	tolerable donor substrates for His6-PmHS2	not for MBPKfiA-His6	did not serve as donor substrates	
CC(=O)N[C@@H]1[C@@H](OP(=O)(O)OP(=O)(O)OC[C@H]2O[C@@H](n3ccc(=O)[nH]c3=O)[C@H](O)[C@@H]2O)O[C@H](CO)[C@@H](O)[C@@H]1O [Compound 33-20, Uridine 5′-diphospho-2-acetamido-2-deoxy-α-D-mannopyranoside]	not tolerable substrate	not tolerable substrate		
O=c1ccn([C@@H]2O[C@H](COP(=O)(O)OP(=O)(O)O[C@H]3O[C@H](CO)[C@@H](O)[C@H](O)[C@H]3NS(=O)(=O)O)[C@@H](O)[C@H]2O)c(=O)[nH]1 [Compound F17-7, Uridine 5′-diphospho-2-sulfoamino-2-deoxy-α-D-glucopyranoside]	block the activities of both		did not serve as donor substrates	
[N-]=[N+]=N[C@H]1[C@@H](OP(=O)(O)OP(=O)(O)OC[C@H]2O[C@@H](n3ccc(=O)[nH]c3=O)[C@H](O)[C@@H]2O)O[C@H](CO)[C@@H](O)[C@@H]1O [Compound F17-6, Uridine 5′-diphospho-2-azido-2-deoxy-α-D-glucopyranoside]	not acceptable donor substrates	not acceptable donor substrates	did not serve as donor substrates	
CC(=O)NC1C(OP(=O)(O)OP(=O)(O)OCC2OC(n3ccc(=O)[nH]c3=O)C(O)C2O)OC(CN)C(O)C1O [Compound F17-10, Uridine 5′-diphospho-2-acetamido-6-amino-2,6-dideoxy-α-D-glucopyranoside]	tolerable donor substrates for His6-PmHS2	not for MBPKfiA-His6	did not serve as donor substrates	
